Results from patent US9789058B2, “Ophthalmic composition for the treatment of ocular infection” (CooperVision International Holding Company, LP, priority 2014, dated 2017).
≈ marks a conversion by molar mass, not a printed value. Where two headings read alike, the source gives them in different places.

Legend:
[1] = system: methicillin-resistant S. aureus (MRSA); test: Broth microdilution susceptibility (MIC), MRSA isolates; assay type: cell-based, Staphylococus aureus; conditions: for MIC / MIC50 / MIC90 / Maximum (MIC) / Minimum (MIC): MRSA, N=25 isolates
Description: (§1) The MIC50 and MIC90 of εPL against methicillin-sensitive Staphylococus aureus) and MRSA were determined in these studies. (The “Minimum”, “Maximum”, and MIC50 and MIC90 in the Table are provided in units of μg/ml.) Other antimicrobial agents such as tobramycin, moxifloxacin, and PHMB (polyhexamethylene biguanid) were included for comparison. Broth microdilution tests were performed in accordance with the Clinical and Laboratory Standards Institute (CLSI) (M07-A9, Vol. 32 No. 2, January, 2012) for aerobic and facultative anaerobic strains. Cation-adjusted Mueller-Hinton broth was used for testing staphylococci species.

[2] = system: methicillin-susceptible S. aureus (MSSA); test: Broth microdilution susceptibility (MIC), MSSA isolates; assay type: cell-based, Staphylococus aureus; conditions: N=25 isolates
Description: as §1

[3] = Ocular toxicity study in rabbits; assay type: in vivo
Description: Rabbits were divided into three treatment groups, each was treated with increasing concentrations of εPL (50, 150, and 500 μg/mL) in phosphate buffered saline (PBS) at pH 7.3. Specifically, rabbits from each group were dosed with a drop of εPL solution in the left eye of a rabbit eight times during a seven-hour period. The right eye was dosed with PBS. Macroscopic examinations were performed prior to the first dose, and 10 minutes following each dose. Slit lamp microscopic examinations were performed prior to the first dose and at termination. Ocular tissues were collected at termination and submitted for histological evaluation.
During the dosing period, there were some sporadic occurrences of conjunctival discharge as observed by macroscopic examination. However, they were equally divided between εePL-treated and PBS-treated eyes.

MRSA strain K-950 = test: Time-kill study (bactericidal activity); assay type: cell-based, Staphylococus aureus; conditions: for decrease of MRSA colony counts: 8 hours post-inoculation
Description: The bactericidal activity of εPL against MRSA strain K-950 was evaluated. […] Test tubes containing 0.5 mL of εPL at 0.25 μg/mL, 1.0 μg/mL, 4.0 μg/mL or 16.0 μg/mL εPL in Mueller Hinton broth growth media and approximately 10^6 CFU/mL of K-950 were incubated at 37° C. After 1, 2, 4, 6, 8 and 24 hours of incubation, the test tubes were removed and colony forming units were calculated. To calculate CFU, 100 μL of the medium was removed from a tube and serially diluted (1:10 dilutions) in the medium. Aliquots of 100 μL of each dilution were plated, in duplicate, onto TSA agar plates containing 5% sheep's blood. The plates were incubated at 37° C. overnight and the colonies were counted the next day.

[4] = Staphylococcus aureus, cation-adjusted Mueller-Hinton broth, read-out: Minimum (MIC)
[5] = Staphylococcus aureus, read-out: MIC50
[6] = Staphylococcus aureus, read-out: MIC90
[7] = Staphylococcus aureus, read-out: Maximum (MIC)
[8] = cation-adjusted Mueller-Hinton broth

With COc1c(N2C[C@@H]3CCCN[C@@H]3C2)c(F)cc2c(=O)c(C(=O)O)cn(C3CC3)c12 [Moxifloxacin, moxifloxacin] the MIC [1, 4] was 0.03 µg/mL (≈ 0.0747 µM), the MIC50 [1, 5] was 1 µg/mL (≈ 2.49 µM) and the MIC90 [1, 6] was 4 µg/mL (≈ 9.96 µM). For the same compound, the MIC [1, 7] was 8 µg/mL (≈ 19.9 µM), the MIC [2, 4] was 0.03 µg/mL (≈ 0.0747 µM) and the MIC50 [2, 5] was 0.06 µg/mL (≈ 0.149 µM). The MIC90 [2, 6] was 1 µg/mL (≈ 2.49 µM) and the MIC [2, 7] was 1 µg/mL (≈ 2.49 µM).
NC[C@H]1O[C@H](O[C@H]2[C@H](O)[C@@H](O[C@H]3O[C@H](CO)[C@@H](O)[C@H](N)[C@H]3O)[C@H](N)C[C@@H]2N)[C@H](N)C[C@@H]1O [Tobramycin, tobramycin] showed an MIC [1, 4] of 0.12 µg/mL (≈ 0.257 µM), an MIC50 [1, 5] of 0.5 µg/mL (≈ 1.07 µM) and an MIC90 [1, 6] of 64 µg/mL (≈ 137 µM). It also gave an MIC [1, 7] of 64 µg/mL (≈ 137 µM), an MIC [2, 4] of 0.12 µg/mL (≈ 0.257 µM) and an MIC50 [2, 5] of 0.25 µg/mL (≈ 0.535 µM). For the same compound, the MIC90 [2, 6] was 1 µg/mL (≈ 2.14 µM) and the MIC [2, 7] was 1 µg/mL (≈ 2.14 µM).
With polyhexamethylene biguanid [PHMB] the MIC50 [1] was 2 µg/mL, the MIC90 [1] was 2 µg/mL and the “Maximum (MIC)” value [1] was 4 µg/mL. For the same compound, the “Minimum (MIC)” value [1, 8] was 1 µg/mL, the MIC50 [2] was 2 µg/mL and the MIC90 [2] was 2 µg/mL. The “Maximum (MIC)” value [2] was 2 µg/mL and the “Minimum (MIC)” value [2, 8] was 1 µg/mL.
With ε-polylysine [εPL] the “slit lamp microscopic examination and histologic findings” value ([3]; rabbits, 50, 150 and 500 μg/mL, eight doses in seven hours) was “did not reveal any abnormality”, the ocular tolerability ([3]; rabbits, one drop in the eye eight times during a seven-hour period, concentrations up to 500 μg/mL in PBS pH 7.3) was “well tolerated” and the “effect on the colony counts” value (MRSA strain K-950) was “no effect”. For the same compound, the “Colony Counts” value (MRSA strain K-950; 0.25X MIC (1 μg/ml), 0 Hours) was 4.65 × 10^5 CFU/ml, the “Colony Counts” value (MRSA strain K-950; 0.25X MIC (1 μg/ml), 1 Hour) was 3.90 × 10^5 CFU/ml and the “Colony Counts” value (MRSA strain K-950; 0.25X MIC (1 μg/ml), 2 Hours) was 9.75 × 10^5 CFU/ml. The “Colony Counts” value (MRSA strain K-950; 0.25X MIC (1 μg/ml), 4 Hours) was 2.95 × 10^7 CFU/ml, the “Colony Counts” value (MRSA strain K-950; 0.25X MIC (1 μg/ml), 6 Hours) was 5.90 × 10^6 CFU/ml and the “Colony Counts” value (MRSA strain K-950; 0.25X MIC (1 μg/ml), 8 Hours) was 1.19 × 10^7 CFU/ml. For the same compound, the “Colony Counts” value (MRSA strain K-950; 0.25X MIC (1 μg/ml), 24 Hours) was 1.19 × 10^8 CFU/ml, the “Colony Counts” value (MRSA strain K-950; 1X MIC (4 μg/ml), 4 Hours) was 6.30 × 10^4 CFU/ml and the “Colony Counts” value (MRSA strain K-950; 4X MIC (16 μg/ml), 0 Hours) was 4.55 × 10^5 CFU/ml. The “Colony Counts” value (MRSA strain K-950; 4X MIC (16 μg/ml), 1 Hour) was 4.25 × 10^5 CFU/ml, the “Colony Counts” value (MRSA strain K-950; 4X MIC (16 μg/ml), 2 Hours) was 8.45 × 10^4 CFU/ml and the “Colony Counts” value (MRSA strain K-950; 4X MIC (16 μg/ml), 4 Hours) was 1.92 × 10^3 CFU/ml. For the same compound, the “Colony Counts” value (MRSA strain K-950; 4X MIC (16 μg/ml), 6 Hours) was 2.10 × 10^2 CFU/ml, the “Colony Counts” value (MRSA strain K-950; 4X MIC (16 μg/ml), 8 Hours) was 3.00 × 10^1 CFU/ml and the “Colony Counts” value (MRSA strain K-950; 4X MIC (16 μg/ml), 24 Hours) was 7.10 × 10^3 CFU/ml. For the same compound, the “decrease of MRSA colony counts” value (MRSA strain K-950; 4 times the MIC (16.0 μg/ml)) was “more than 3 logs”, the “MIC of the tested strain” value (MRSA strain K-950; MRSA strain K-950) was 4.0 µg/mL and the “decrease of MRSA colony counts” value (MRSA strain K-950; at MIC) was 2.4 Log. For the same compound, the “action against MRSA” value (MRSA strain K-950; time-kill study, MRSA K-950) was “bactericidal”, the MIC50 [1] was 4 µg/mL and the MIC90 [1] was 8 µg/mL. The “Maximum (MIC)” value [1] was 8 µg/mL, the “Minimum (MIC)” value [1, 8] was 4 µg/mL and the MICs range ([1]; all 50 isolates tested (MSSA and MRSA)) was 4 to 8 µg/mL. The MIC50 [2] was 8 µg/mL, the MIC90 [2] was 8 µg/mL and the “Maximum (MIC)” value [2] was 8 µg/mL. The “Minimum (MIC)” value [2, 8] was 4 µg/mL.
